Assays:
Av5E1aTK01i [1] = test: GCV inhibition of Av5E1aTk01i replication in vivo, immunohistochemistry of subcutaneous A549 tumors; design: species or system nude mice; conditions: A549 tumors injected with 1×10^9 pfu Av5E1aTK01i; IP GCV 75 mg/kg once a day for 5 days
Protocol: (§1) FIG. 7. GCV Inhibition of Av5E1aTk01i Replication In Vivo. Subcutaneous tumors were formed by injecting 1×10^7 A549 cells into the subcutaneous space of the right flank of nude mice. After tumors formed 1×10^9 pfu of Add1327Tk01i was injected into several animals containing tumors. After 5 days, half of the animals received 5 days of IP GCV treatment at 75 mg/kg once a day. At the end of this time frame all animals were sacrificed. Immunohistochemistry was performed on all samples for HSV-TK expression and hexon expression, the latter which is only expressed when the vector is replicating.
as §1, with “Subcutaneous” for “FIG. 7. GCV Inhibition of Av5E1aTk01i Replication In Vivo. Subcutaneous”, “tumors formed,” for “tumors formed”, “of Av5E1aTK01i” for “of Add1327Tk01i”, “5 days” for “5 days,”, “half” for “half of”

Av5E1aTK01i [2] = test: GCV inhibition of vector replication in vitro, viral titer by TCID50 on 293 cells; format: cell-based; conditions: A549 cells transduced with Av5E1aTK01i; 10 μM GCV for 5 days; repeated three times
Protocol: (§2) FIG. 6. GCV Inhibition of Av5E1aTk01i Replication In Vitro. A549 cells were transduced with either Add1327 or Add1327Tk01i. Cells were then treated with 10 uM GCV for 5 days. Following the 5 day incubation, cells were harvested, washed in HBSS, and then freeze/thawed to prepare a crude viral lysate. Titers were then performed by standard TCID50 assays on 293 cells to determine viral titer. The experiment was repeated three times.
(§3) HSV-TK was placed into the E3 region of Add1327 to form Av5E1aTK01i. A549 cells were transduced with either Add1327 or Av5E1aTK01i. Cells were then treated with 10 μM GCV for 5 days. Following the 5 day incubation cells were harvested, washed in HBSS, and then freeze/thawed to prepare a crude viral lysate. Titers were then performed by standard TCID^50 assays on 293 cells to determine viral titer. The experiment was repeated three times.

Add1327 = test: as above; format: cell-based; conditions: A549 cells transduced with Add1327; 10 μM GCV for 5 days; repeated three times
Protocol: as §2, §3

**Q.** Which results are given for `Nc1nc(O)c2ncn(COC(CO)CO)c2n1` [GCV, ganciclovir]?
**A.** hexon expression (only expressed when the vector is replicating), immunohistochemistry (Av5E1aTK01i [1]): severely diminished; drop in titer of a vector carrying the HSV-TK gene (Av5E1aTK01i [2]): greater than 4 order of magnitude; effect on viral titer of an adenovirus not carrying the HSV-TK gene (Add1327): no effect
